Results taken from BindingDB's records for patent US20240010684 (Bayer Aktiengesellschaft, 2024).
Where a SMILES comes first, the peptide text is derived from it. Bridges are numbered along the chain shown (N, C = ends). [ ]: non-standard residue; d: D form. Oic = O=C(O)[C@@H]1C[C@@H]2CCCC[C@@H]2N1; Pen = CC(C)(S)[C@H](N)C(=O)O

Experiments:
[1] = target: T1, Mannan-binding lectin serine protease 1 (Homo sapiens, UniProt P48740); test: Biochemical Human MASP1 Assay
T1 sequence (P48740 whole entry): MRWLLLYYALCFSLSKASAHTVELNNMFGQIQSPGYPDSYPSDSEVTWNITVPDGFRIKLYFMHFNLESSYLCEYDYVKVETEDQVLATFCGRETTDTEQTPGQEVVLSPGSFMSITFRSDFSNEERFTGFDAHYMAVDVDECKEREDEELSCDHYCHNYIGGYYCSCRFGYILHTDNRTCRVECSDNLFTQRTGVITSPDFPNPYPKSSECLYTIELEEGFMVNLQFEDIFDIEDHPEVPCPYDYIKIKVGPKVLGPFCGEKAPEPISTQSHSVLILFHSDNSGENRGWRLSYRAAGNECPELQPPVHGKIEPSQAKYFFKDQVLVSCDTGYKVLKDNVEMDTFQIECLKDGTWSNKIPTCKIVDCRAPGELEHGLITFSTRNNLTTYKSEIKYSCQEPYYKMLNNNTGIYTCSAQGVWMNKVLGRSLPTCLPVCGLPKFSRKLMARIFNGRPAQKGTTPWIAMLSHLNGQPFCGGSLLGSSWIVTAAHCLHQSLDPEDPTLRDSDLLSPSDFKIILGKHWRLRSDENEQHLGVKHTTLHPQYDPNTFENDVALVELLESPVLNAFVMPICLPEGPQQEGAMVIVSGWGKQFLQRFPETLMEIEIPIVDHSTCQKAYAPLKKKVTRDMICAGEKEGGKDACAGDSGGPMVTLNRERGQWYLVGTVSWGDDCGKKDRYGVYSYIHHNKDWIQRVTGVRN
Procedure: Recombinant human MASP1 enzyme produced in the HEK 293 cells was diluted in the reaction buffer (50 mM HEPES pH 8,0; 100 mM NaCl; 0,01% CHAPS; 0.5 mM Gluthathione) to the concentration of 20 nM and 25 μl was transferred into each single well of 384-well white microtiter plate (Greiner Bio One 781075). 1 μl of the inhibitor compound solution (dissolved in DMSO, at the corresponding concentration) or pure DMSO as a control was added to the same wells. The enzymatic reaction was initiated by addition of 25 μl of 20 μM solution of the FRET substrate ABZ-[…]-Lys (Dnp)-NH2; (ABZ-2-aminobenzoyl; DNP 2,4-dinitrophenyl; custom synthesis by Jerini Peptide Technologies, Berlin) in the reaction buffer. The microtiter plate was incubated for 60-120 min at the temperature of 32 C. The increase of fluorescence intensity was measured in appropriate fluorescence plate reader (e.g. TECAN Ultra) using excitation wavelength of 320 nm and emission wavelength of 420 nm. IC50 values were calculated from percentage of inhibition of human MASP1 activity as a function of test compound concentration.

[2] = target: Mannan-binding lectin serine protease 2 (Homo sapiens, UniProt O00187); test: Biochemical Human MASP2 Assay
Sequence of Mannan-binding lectin serine protease 2 (Homo sapiens, UniProt O00187) (O00187 16-444 limits assumed): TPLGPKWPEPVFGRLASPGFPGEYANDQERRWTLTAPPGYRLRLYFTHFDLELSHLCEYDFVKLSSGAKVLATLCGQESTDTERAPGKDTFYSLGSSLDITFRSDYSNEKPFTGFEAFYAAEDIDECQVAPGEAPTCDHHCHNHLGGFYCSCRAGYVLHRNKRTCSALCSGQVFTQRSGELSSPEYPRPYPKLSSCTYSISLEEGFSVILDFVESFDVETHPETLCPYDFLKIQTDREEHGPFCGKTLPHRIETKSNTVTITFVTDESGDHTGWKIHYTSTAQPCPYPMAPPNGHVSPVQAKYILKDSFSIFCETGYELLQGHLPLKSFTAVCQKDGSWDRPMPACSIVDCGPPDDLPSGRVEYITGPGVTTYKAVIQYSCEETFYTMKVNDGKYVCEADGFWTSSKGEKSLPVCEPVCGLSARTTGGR
Sequence of Mannan-binding lectin serine protease 2 (Homo sapiens, UniProt O00187) (O00187 445-686 limits assumed): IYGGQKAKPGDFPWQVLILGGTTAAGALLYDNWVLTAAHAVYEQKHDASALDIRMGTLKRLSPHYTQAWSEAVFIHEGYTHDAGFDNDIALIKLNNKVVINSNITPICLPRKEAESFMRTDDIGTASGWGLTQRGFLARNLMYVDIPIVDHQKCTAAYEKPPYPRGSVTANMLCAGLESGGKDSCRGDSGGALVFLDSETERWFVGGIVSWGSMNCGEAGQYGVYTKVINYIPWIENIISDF
Procedure: Recombinant human MASP2 enzyme produced in the HEK 293 cells was diluted in the reaction buffer (50 mM HEPES pH 8,0; 100 mM NaCl; 0,01% CHAPS; 0.5 mM Gluthathione) to the concentration of 20 nM and 25 μl was transferred into each single well of 384-well white microtiter plate (Greiner Bio One 781075). 1 μl of the inhibitor compound solution (dissolved in DMSO, at the corresponding concentration) or pure DMSO as a control was added to the same wells. The enzymatic reaction was initiated by addition of 25 μl of 60 μM solution of the FRET substrate DABCYL-[…]-Glu(EDANS) NH2; (Dabcyl-4-((4-(dimethylamino)phenyl)azo)benzoic acid; Edans-5-[(2-Aminoethyl) amino]naphthalene-1-sulfonyl; custom synthesis by Jerini Peptide Technologies, Berlin) in the reaction buffer. The microtiter plate was incubated for 60-120 min at the temperature of 32 C.

[3] = target: T2, Mannan-binding lectin serine protease 1 (Rattus norvegicus, UniProt Q8CHN8); test: Biochemical Rat MASP1 Assay
T2 sequence (Q8CHN8 whole entry): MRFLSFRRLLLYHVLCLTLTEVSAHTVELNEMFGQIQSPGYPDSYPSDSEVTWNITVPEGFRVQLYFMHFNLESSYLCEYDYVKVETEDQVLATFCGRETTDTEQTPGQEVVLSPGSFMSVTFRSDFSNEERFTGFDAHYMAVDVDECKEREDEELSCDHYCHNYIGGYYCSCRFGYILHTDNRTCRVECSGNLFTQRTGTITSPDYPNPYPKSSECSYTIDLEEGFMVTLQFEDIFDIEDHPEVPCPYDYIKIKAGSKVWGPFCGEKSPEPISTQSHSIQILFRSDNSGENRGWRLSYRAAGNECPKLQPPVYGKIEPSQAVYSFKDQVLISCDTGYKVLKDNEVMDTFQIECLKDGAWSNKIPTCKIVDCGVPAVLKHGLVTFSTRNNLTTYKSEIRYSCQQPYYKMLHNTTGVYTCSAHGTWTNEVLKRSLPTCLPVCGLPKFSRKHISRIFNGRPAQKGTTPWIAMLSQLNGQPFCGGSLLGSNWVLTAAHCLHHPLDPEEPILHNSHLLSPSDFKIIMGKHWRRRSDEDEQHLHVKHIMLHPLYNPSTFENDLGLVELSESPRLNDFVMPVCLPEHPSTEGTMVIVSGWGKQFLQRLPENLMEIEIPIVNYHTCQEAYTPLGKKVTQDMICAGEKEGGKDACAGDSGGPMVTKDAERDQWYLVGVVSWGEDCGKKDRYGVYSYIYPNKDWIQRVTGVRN
Procedure: Recombinant […] produced in the HEK 293 cells was diluted in the reaction buffer (50 mM HEPES pH 8,0; 100 mM NaCl; 0,01% CHAPS; 0.5 mM Gluthathione) to the concentration of 4 nM and 25 μl was transferred into each single well of 384-well white microtiter plate (Greiner Bio One 781075). 1 μl of the inhibitor compound solution (dissolved in DMSO, at the corresponding concentration) or pure DMSO as a control was added to the same wells. The enzymatic reaction was initiated by addition of 25 μl of 40 μM solution of the FRET substrate Dabcyl-[…]-Glu(Edans)-NH2; (Dabcyl-4-((4-(dimethylamino)phenyl)azo)benzoic acid; Edans-5-[(2-Aminoethyl) amino]naphthalene-1-sulfonyl; custom synthesis by Jerini Peptide Technologies, Berlin) in the reaction buffer. The microtiter plate was incubated for 60-120 min at the temperature of 32 C. The increase of fluorescence intensity was measured in appropriate fluorescence plate reader (e.g. TECAN Ultra) using excitation wavelength of 340 nm and emission wavelength of 490 nm. IC50 values were calculated from percentage of inhibition of rat […] activity as a function of test compound concentration.

[4] = target: Mannan-binding lectin serine protease 2 (Rattus norvegicus, UniProt Q9JJS8); test: Biochemical Rat MASP2 Assay
Sequence of Mannan-binding lectin serine protease 2 (Rattus norvegicus, UniProt Q9JJS8) (Q9JJS8 20-443 limits assumed): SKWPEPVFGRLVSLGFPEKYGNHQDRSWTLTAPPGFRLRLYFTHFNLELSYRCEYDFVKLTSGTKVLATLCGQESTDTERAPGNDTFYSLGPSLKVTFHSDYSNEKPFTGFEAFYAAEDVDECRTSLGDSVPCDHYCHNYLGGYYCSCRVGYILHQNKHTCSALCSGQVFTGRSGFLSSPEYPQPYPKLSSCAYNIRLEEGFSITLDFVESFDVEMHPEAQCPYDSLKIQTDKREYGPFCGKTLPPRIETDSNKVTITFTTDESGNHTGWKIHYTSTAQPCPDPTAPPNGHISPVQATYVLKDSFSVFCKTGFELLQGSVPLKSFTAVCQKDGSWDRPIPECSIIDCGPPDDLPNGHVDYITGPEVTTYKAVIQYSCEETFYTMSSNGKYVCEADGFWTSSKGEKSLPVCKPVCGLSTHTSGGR
Sequence of Mannan-binding lectin serine protease 2 (Rattus norvegicus, UniProt Q9JJS8) (Q9JJS8 444-685 limits assumed): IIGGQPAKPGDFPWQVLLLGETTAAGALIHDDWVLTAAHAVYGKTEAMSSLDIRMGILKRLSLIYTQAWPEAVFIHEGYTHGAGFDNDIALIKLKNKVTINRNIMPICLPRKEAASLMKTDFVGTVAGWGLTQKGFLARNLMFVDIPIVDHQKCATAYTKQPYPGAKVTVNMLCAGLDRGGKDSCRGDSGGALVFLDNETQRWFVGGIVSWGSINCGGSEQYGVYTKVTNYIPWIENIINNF
Procedure: 1 μl of the inhibitor compound solution (dissolved in DMSO, at the corresponding concentration) or pure DMSO as a control was added to the same wells. The enzymatic reaction was initiated by addition of 25 μl of 30 μM solution of the FRET substrate Abz-IEGRTSED-(Lys)Dnp-NH2; (ABZ-2-aminobenzoyl; DNP-2,4-dinitrophenyl; custom synthesis by Jerini Peptide Technologies, Berlin) in the reaction buffer. The microtiter plate was incubated for 60-120 min at the temperature of 32 C. The increase of fluorescence intensity was measured in appropriate fluorescence plate reader (e.g. TECAN Ultra) using excitation wavelength of 320 nm and emission wavelength of 420 nm. IC50 values were calculated from percentage of inhibition of rat […] activity as a function of test compound concentration.

Row | IC50 [1] [nM] | IC50 [2] [nM] | IC50 [3] [nM] | IC50 [4] [nM] | SMILES
1 | 19 | 160 | 170 |  | CC[C@H](C)[C@@H]1NC(=O)CNC(=O)CNC(=O)[C@H](C)NC(=O)[C@@H](CC(=O)O)NC(=O)[C@@H]2CCCN2C(=O)[C@H]([C@@H](C)CC)NC(=O)[C@H]2NC(=O)[C@H]([C@@H](C)CC)NC(=O)[C@@H]3C[C@@H]4CCCC[C@@H]4N3C(=O)[C@@H]3CCCN3C(=O)[C@H](CC(C)C)NC(=O)[C@H](CO)NC(=O)[C@H](CCCNC(=N)N)NC(=O)[C@H](CO)NC(=O)[C@H](CSSC2(C)C)NC1=O [US20240010684, Ex. No 98] (cyclo(AGGICSRSLP[Oic]I[Pen]IP[dD]); disulfide 5-13)
2 | > 3000 | > 3000 |  | 1000 | CC[C@H](C)[C@@H]1NC(=O)[C@@H]2CCCN2C(=O)[C@@H]2CCCN2C(=O)[C@H]([C@@H](C)CC)NC(=O)[C@H](CO)NC(=O)[C@H](CCCCN)NC(=O)[C@H]([C@@H](C)O)NC(=O)[C@@H]2CSSC[C@H](NC1=O)C(=O)N[C@@H](Cc1ccccc1)C(=O)N1CCC[C@H]1C(=O)N[C@@H](CC(=O)O)C(=O)NCC(=O)N[C@@H](CCCNC(=N)N)C(=O)N2 [US20240010684, Ref. No 2]
3 | 8.4 | 77 | 170 | 41 | CC[C@H](C)[C@@H]1NC(=O)CNC(=O)CNC(=O)[C@H](C)NC(=O)[C@H](CC(=O)O)NC(=O)[C@@H]2CCCN2C(=O)[C@H]([C@@H](C)CC)NC(=O)[C@H]2NC(=O)[C@H]([C@@H](C)CC)NC(=O)[C@@H]3C[C@@H]4CCCC[C@@H]4N3C(=O)[C@@H]3CCCN3C(=O)[C@H](CC(C)C)NC(=O)[C@H](CO)NC(=O)[C@H](CCCNC(=N)N)NC(=O)[C@H](CO)NC(=O)[C@H](CSSC2(C)C)NC1=O [US20240010684, Ex. No 92] (cyclo(AGGICSRSLP[Oic]I[Pen]IPD); disulfide 5-13)
